# Test results published in patent US12435312B2, “Quantifying cell-derived changes in collagen synthesis, alignment, and mechanics in a 3D connective tissue model” (Brown University, priority 2022, dated 2025).
# Columns and labels:
# [1] = tested on: normal human dermal fibroblasts (ring-shaped tissue constructs); assay: Collagen quantification (pepsin-acid soluble collagen, sircol dye binding assay) of ring-shaped tissue constructs; assay type: cell-based; conditions: for effect on collagen content: p>0.05
# Procedure: (§1) Cell Source and Culture Conditions: Juvenile normal human dermal fibroblasts (jNHDF) were purchased from PromoCell (Heidelberg, Germany). Cells were expanded in Dulbecco's Modified Eagle's medium (DMEM) with high glucose, 1-glutamine, phenol red, and sodium pyruvate (11995065, Thermo Fisher Scientific, Waltham, MA) supplemented with 10% FBS and 1% penicillin/streptomycin at 10% CO2 and 37° C. Cells were passaged (P3-8) and expanded using a standard trypsin protocol. Cells were rinsed with 1× PBS (SH30256.FS, Thomas Scientific, Swedesboro, NJ), exposed to 0.05% trypsin in PBS for 4 min, quenched with serum containing media, centrifuged at 220g for 3 min, resuspended, counted, and plated at a density of 3.5-7.0×10^3 cells per cm^2. Ring-shaped tissue constructs (5 mm) were seeded at 3×10^5 cells per well in 1 mL of media exchanged every 2/3 days unless otherwise noted. For media composition experiments, tissues were cultured in serum-free DMEM supplemented with 0.1 mm 2-phospho-l-ascorbic acid trisodium salt (SigmaAldrich, St. Louis, MO), 50.0 μg mL^−1 I-proline (Thermo Fisher), 1% penicillin/streptomycin (SFM+), advanced DMEM (12491015) supplemented with 4 mm GlutaMax and 1% penicillin/streptomycin (SFMA), or a 50:50 mixture of the two (50:50 SFM+/SFMA).
# Drug Treatment: For all dose-response experiments, ring constructs were allowed to form for 24 h prior to treatment. […]
# Collagen Quantification: Tissues were homogenized with 2 mm glass beads for 2/3 min and solubilized in 0.1 mg mL^−1 pepsin in 0.5 m acetic acid at 4° C. for 48 h. Total pepsin-acid soluble collagen was quantified via sircol dye binding assay per kit instructions (S5000, Biocolor, United Kingdom). Absorbance was measured at 525 nm and collagen content was determined from a standard curve and adjusted to microgram equivalent of native pepsin-acid soluble collagen.
# [2] = tested on: normal human dermal fibroblasts (ring-shaped tissue constructs); assay: Tensile mechanical testing to failure of ring-shaped tissue constructs; assay type: cell-based
# Procedure: as §1
# Fabrication of Ring-Shaped Tissue Constructs: Ring-shaped molds were designed usingCADsoftware (SolidWorks Corporation, Concord, MA) and fabricated from stainless steel 316 L on a CNC lathe (Protolabs, Maple Plain, MN). The stainless steel parts were designed to fit into a single well of a standard 24 well plate. Ring-shaped agarose gels were cast by placing the stainless steel part into a well filled with 1.5 mL of molten, sterile 2% (w/v) agarose (BP160-500, Fisher Scientific, Hampton, NH) in 1× PBS, allowed to harden for 15 min, and removed. […] A lid mirroring a standard 24 well plate lid was fabricated out of aluminum with through holes above each well to permit the placement of all 24 stainless steel parts simultaneously. Gels were equilibrated in serum-free DMEM with 1% penicillin/streptomycin at 37° C., 10% CO2 for at least 24 h before use.
# Drug Treatment: For all dose-response experiments, ring constructs were allowed to form for 24 h prior to treatment. FBS (12483020, Life Technologies, Carlsbad, CA), Y-27632 (S1049, Selleck Chemicals, Houston, TX), TGF-β1 (7754-BH-25, […]), and SB-431542 (S1067, Selleck Chemicals) doses were freshly prepared from frozen aliquots and resuspended in 50:50 SFM+/SFMA medium prior to feeding 3× per week. Doses of FBS were prepared at 10%, 1.0%, and 0.1% [v/v] concentrations with a 0% control. Y-27632 and SB-431542 were reconstituted in dimethyl sulfoxide (DMSO) and resuspended at a final concentration of 10, 1.0, 0.1, and a 0 μm vehicle control with a DMSO final volume always less than 0.1%. TGF-β1 was reconstituted in 0.1% bovine serum albumin (BSA) in 4 mm HCl (RB04, […]) and prepared at a final concentration of 10, 2, 0.4, and 0 ng mL^−1 vehicle control.
# Mechanical Testing: Ring-shaped microtissues were mechanically tested using custom designed grippers on a uniaxial tensile testing setup (Instron 5943, Norwood, MA) equipped with a 5N (5 mn resolution) load cell. Agarose molds were trimmed with a razor blade and top and sideview brightfield images were obtained on a Nikon Eclipse Ts2 microscope (Nikon, Tokyo, Japan) to determine the initial elliptical cross-sectional area (A0). Just prior to testing, tissue constructs were gently removed from the agarose mold using forceps and mounted between grippers which consisted of two horizontal cylindrical segments with a circular diameter of 3 mm fabricated from glass filled nylon (PA614-GS, ProtoLabs). Tissues were brought to a 5 mm initial grip-to-grip distance and tests were performed in PBS at 37° C. […]
# [3] = tested on: actomyosin network; conditions: disruption of the actomyosin network; cited from earlier work
# [4] = highest inhibitory concentration (10.0 μM) in 50:50 media, day 7 and 14, p<0.05
# [5] = 0.1, 1.0, 10.0 μM in 50:50 media from 24 h after seeding, 7 or 14 days, p>0.05
# [6] = 10 ng mL^−1 TGF-β1 versus 10 μm SB431542, day 7
compound,measurement,setting,value
NC(=O)c1ccc(-c2nc(-c3ccc4c(c3)OCO4)c(-c3ccccn3)[nH]2)cc1 [SB-431542],effect on collagen content,"[1]; 0.1, 1.0, 10.0 μM in 50:50 media, any dose or time point",no effect
same,effect on tissue stiffness,[2]; [4],weakest stiffness and strength
same,effect on tissue strength,[2]; [4],weakest stiffness and strength
C[C@@H](N)[C@H]1CC[C@H](C(=O)Nc2ccncc2)CC1 [Y-27632],effect on collagen content,"[1]; 0.1, 1.0, 10.0 μM in 50:50 media from 24 h after seeding, 7 or 14 days",did not significantly affect
same,effect on tissue stiffness,[2]; [5],did not significantly affect
same,effect on tissue strength,[2]; [5],did not significantly affect
Cc1ccc2c(c1)C(=O)C1(O)CCN(c3ccccc3)C1=N2 (stereo not drawn) [blebbistatin],effect on development of mechanical properties,[3],halts the development of mechanical properties
TGF-β1: pleiotropic growth factor and proposed master mediator of fibrotic disorders,change in collagen content,"[1]; 0.4, 2.0, 10 ng mL^−1 in 50:50 media, day 7 and 14",not a concomitant change
same,"increase in tissue stiffness, TGF-β1 stimulation versus inhibition with SB431542",[2]; [6],4.8 fold
same,"increase in tissue strength, TGF-β1 stimulation versus inhibition with SB431542",[2]; [6],6.5 fold
same,effect on tissue mechanics (stiffness and strength),"[2]; 0.4, 2.0, 10 ng mL^−1 in 50:50 media, day 7 and 14, p<0.05",increased tissue mechanics in a significant dose-dependent manner
cytochalasin,effect on development of mechanical properties,[3],halts the development of mechanical properties
